Experimental data: article PMC10912062, “A novel PET probe to selectively image heat shock protein 90α/β isoforms in the brain” (EJNMMI Radiopharmacy and Chemistry, 2024)

What was measured:
Test in all cases: biochemical
Conditions in all cases: read-out: Percentage of inhibition / BIIB021 1×10-5 mol/L; competitive radioligand binding
Adenosine A1 (Human) = target: T1, Adenosine A1 (Human) (Homo sapiens, UniProt P30542)
T1 construct: gene ADORA1
Description: (§1) Percent inhibition for each protein was calculated following the reported method (Okamura et al. [2013]).

Adenosine A2a (Human) = target: T2, Adenosine A2a (Human) (Homo sapiens, UniProt P29274)
T2 construct: gene ADORA2A
Description: as §1

Androgen = target: T3, Androgen (Rattus norvegicus, UniProt P15207)
T3 construct: gene Ar
Description: as §1

Angiotensin AT1 (Human) = target: T4, Angiotensin AT1 (Human) (Homo sapiens, UniProt P30556)
T4 construct: gene AGTR1
Description: as §1

Bradykinin B1 (Human) = target: T5, Bradykinin B1 (Human) (Homo sapiens, UniProt P46663)
T5 construct: gene BDKRB1
Description: as §1

Bradykinin B2 (Human) = target: T6, Bradykinin B2 (Human) (Homo sapiens, UniProt P30411)
T6 construct: gene BDKRB2
Description: as §1

CCK A (Human) = target: T7, CCK A (Human) (Homo sapiens, UniProt P32238)
T7 construct: gene CCKAR
Description: as §1

Cannabinoid CB1 (Human) = target: T8, Cannabinoid CB1 (Human) (Homo sapiens, UniProt P21554)
T8 construct: gene CNR1
Description: as §1

Cannabinoid CB2 (Human) = target: T9, Cannabinoid CB2 (Human) (Homo sapiens, UniProt P34972)
T9 construct: gene CNR2
Description: as §1

Dopamine D1 (Human) = target: T10, Dopamine D1 (Human) (Homo sapiens, UniProt P21728)
T10 construct: gene DRD1
Description: as §1

[1] = target: T11, Dopamine D2 short (Human) (Homo sapiens, UniProt P14416)
T11 construct: gene DRD2; short isoform
Description: as §1

Dopamine D3 (Human) = target: T12, Dopamine D3 (Human) (Homo sapiens, UniProt P35462)
T12 construct: gene DRD3
Description: as §1

[2] = target: T13, Dopamine transporter (Human) (Homo sapiens, UniProt Q01959)
T13 construct: gene SLC6A3
Description: as §1

Endothelin ETA (Human) = target: T14, Endothelin ETA (Human) (Homo sapiens, UniProt P25101)
T14 construct: gene EDNRA
Description: as §1

Endothelin ETB (Human) = target: T15, Endothelin ETB (Human) (Homo sapiens, UniProt P24530)
T15 construct: gene EDNRB
Description: as §1

GABA B = target: T16, GABA B (Rattus norvegicus, UniProt Q9Z0U4)
T16 construct: gene Gabbr1
Description: as §1

Glucocorticoid (Human) = target: T17, Glucocorticoid (Human) (Homo sapiens, UniProt P04150)
T17 construct: gene NR3C1
Description: as §1

Histamine H1 (Human) = target: T18, Histamine H1 (Human) (Homo sapiens, UniProt P35367)
T18 construct: gene HRH1
Description: as §1

Histamine H2 (Human) = target: T19, Histamine H2 (Human) (Homo sapiens, UniProt P25021)
T19 construct: gene HRH2
Description: as §1

Histamine H3 (Human) = target: T20, Histamine H3 (Human) (Homo sapiens, UniProt Q9Y5N1)
T20 construct: gene HRH3
Description: as §1

Melatonin MT1 (Human) = target: T21, Melatonin MT1 (Human) (Homo sapiens, UniProt P48039)
T21 construct: gene MTNR1A
Description: as §1

Muscarinic M1 (Human) = target: T22, Muscarinic M1 (Human) (Homo sapiens, UniProt P11229)
T22 construct: gene CHRM1
Description: as §1

Muscarinic M2 (Human) = target: T23, Muscarinic M2 (Human) (Homo sapiens, UniProt P08172)
T23 construct: gene CHRM2
Description: as §1

Muscarinic M3 (Human) = target: T24, Muscarinic M3 (Human) (Homo sapiens, UniProt P20309)
T24 construct: gene CHRM3
Description: as §1

Neurokinin NK1 (Human) = target: T25, Neurokinin NK1 (Human) (Homo sapiens, UniProt P25103)
T25 construct: gene TACR1
Description: as §1

Neuropeptide Y2 (Human) = target: T26, Neuropeptide Y2 (Human) (Homo sapiens, UniProt P49146)
T26 construct: gene NPY2R
Description: as §1

[3] = target: T27, Norepinephrine transporter (Human) (Homo sapiens, UniProt P23975)
T27 construct: gene SLC6A2
Description: as §1

Opiate δ (Human) = target: T28, Opiate δ (Human) (Homo sapiens, UniProt P41143)
T28 construct: gene OPRD1
Description: as §1

Opiate κ (Human) = target: T29, Opiate κ (Human) (Homo sapiens, UniProt P41145)
T29 construct: gene OPRK1
Description: as §1

Opiate μ (Human) = target: T30, Opiate μ (Human) (Homo sapiens, UniProt P35372)
T30 construct: gene OPRM1
Description: as §1

Serotonin 5HT1A (Human) = target: T31, Serotonin 5HT1A (Human) (Homo sapiens, UniProt P08908)
T31 construct: gene HTR1A
Description: as §1

Serotonin 5HT2A (Human) = target: T32, Serotonin 5HT2A (Human) (Homo sapiens, UniProt P28223)
T32 construct: gene HTR2A
Description: as §1

Serotonin 5HT3 (Human) = target: T33, Serotonin 5HT3 (Human) (Homo sapiens, UniProt P46098)
T33 construct: gene HTR3A
Description: as §1

[4] = target: T34, Serotonin transporter (Human) (Homo sapiens, UniProt P31645)
T34 construct: gene SLC6A4
Description: as §1

Sigma σ2 = target: T35, Sigma σ2 (Rattus norvegicus, UniProt Q5U3Y7)
T35 construct: gene Tmem97
Description: as §1

Vasopressin V1 = target: T36, Vasopressin V1 (Rattus norvegicus, UniProt P30560)
T36 construct: gene Avpr1a
Description: as §1

α1A-Adrenergic = target: T37, α1A-Adrenergic (Rattus norvegicus, UniProt P43140)
T37 construct: gene Adra1a
Description: as §1

α1B-Adrenergic = target: T38, α1B-Adrenergic (Rattus norvegicus, UniProt P15823)
T38 construct: gene Adra1b
Description: as §1

α2A-Adrenergic (Human) = target: T39, α2A-Adrenergic (Human) (Homo sapiens, UniProt P08913)
T39 construct: gene ADRA2A
Description: as §1

α2B-Adrenergic (Human) = target: T40, α2B-Adrenergic (Human) (Homo sapiens, UniProt P18089)
T40 construct: gene ADRA2B
Description: as §1

β1-Adrenergic (Human) = target: T41, β1-Adrenergic (Human) (Homo sapiens, UniProt P08588)
T41 construct: gene ADRB1
Description: as §1

β2-Adrenergic (Human) = target: T42, β2-Adrenergic (Human) (Homo sapiens, UniProt P07550)
T42 construct: gene ADRB2
Description: as §1

T23 sequence (P08172 whole entry): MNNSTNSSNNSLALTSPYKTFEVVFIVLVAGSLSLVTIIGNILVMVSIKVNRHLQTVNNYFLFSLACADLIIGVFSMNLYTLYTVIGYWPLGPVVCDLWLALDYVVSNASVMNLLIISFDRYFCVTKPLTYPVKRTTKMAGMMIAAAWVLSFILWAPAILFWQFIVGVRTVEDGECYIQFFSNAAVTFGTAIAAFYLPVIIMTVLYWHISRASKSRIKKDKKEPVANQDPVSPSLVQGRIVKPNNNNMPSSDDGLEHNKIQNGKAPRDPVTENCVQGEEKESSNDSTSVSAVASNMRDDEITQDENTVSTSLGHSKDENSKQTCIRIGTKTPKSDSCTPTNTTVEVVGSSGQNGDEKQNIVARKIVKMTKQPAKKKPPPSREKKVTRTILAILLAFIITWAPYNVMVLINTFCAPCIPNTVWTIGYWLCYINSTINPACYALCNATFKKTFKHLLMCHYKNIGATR
T1 sequence (P30542 whole entry): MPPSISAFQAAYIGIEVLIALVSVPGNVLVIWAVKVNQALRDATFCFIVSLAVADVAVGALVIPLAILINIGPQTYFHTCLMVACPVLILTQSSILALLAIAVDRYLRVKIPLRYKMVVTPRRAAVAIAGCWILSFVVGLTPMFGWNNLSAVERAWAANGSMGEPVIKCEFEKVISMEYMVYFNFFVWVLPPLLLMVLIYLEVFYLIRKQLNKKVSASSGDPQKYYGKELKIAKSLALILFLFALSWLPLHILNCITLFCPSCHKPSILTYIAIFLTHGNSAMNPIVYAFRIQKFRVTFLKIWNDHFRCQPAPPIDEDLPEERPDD
T19 sequence (P25021 whole entry): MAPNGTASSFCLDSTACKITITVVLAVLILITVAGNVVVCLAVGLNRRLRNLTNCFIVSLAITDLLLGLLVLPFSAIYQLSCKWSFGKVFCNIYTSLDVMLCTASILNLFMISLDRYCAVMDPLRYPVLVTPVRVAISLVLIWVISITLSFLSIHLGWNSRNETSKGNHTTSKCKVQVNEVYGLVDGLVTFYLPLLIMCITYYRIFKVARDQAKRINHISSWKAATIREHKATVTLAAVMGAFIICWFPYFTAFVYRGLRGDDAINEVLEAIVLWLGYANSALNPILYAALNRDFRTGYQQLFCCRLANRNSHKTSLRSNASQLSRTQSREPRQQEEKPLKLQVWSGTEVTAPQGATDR
T9 sequence (P34972 whole entry): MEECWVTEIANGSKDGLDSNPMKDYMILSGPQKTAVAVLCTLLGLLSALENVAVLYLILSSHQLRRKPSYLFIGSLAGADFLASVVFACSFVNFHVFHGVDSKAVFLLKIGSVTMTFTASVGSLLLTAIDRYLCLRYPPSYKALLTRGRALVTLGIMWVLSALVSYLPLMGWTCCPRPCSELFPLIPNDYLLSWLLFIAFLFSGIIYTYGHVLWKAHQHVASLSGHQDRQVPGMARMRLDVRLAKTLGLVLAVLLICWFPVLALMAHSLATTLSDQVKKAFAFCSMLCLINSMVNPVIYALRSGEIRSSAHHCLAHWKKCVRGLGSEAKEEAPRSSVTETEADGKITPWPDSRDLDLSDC
T6 sequence (P30411 whole entry): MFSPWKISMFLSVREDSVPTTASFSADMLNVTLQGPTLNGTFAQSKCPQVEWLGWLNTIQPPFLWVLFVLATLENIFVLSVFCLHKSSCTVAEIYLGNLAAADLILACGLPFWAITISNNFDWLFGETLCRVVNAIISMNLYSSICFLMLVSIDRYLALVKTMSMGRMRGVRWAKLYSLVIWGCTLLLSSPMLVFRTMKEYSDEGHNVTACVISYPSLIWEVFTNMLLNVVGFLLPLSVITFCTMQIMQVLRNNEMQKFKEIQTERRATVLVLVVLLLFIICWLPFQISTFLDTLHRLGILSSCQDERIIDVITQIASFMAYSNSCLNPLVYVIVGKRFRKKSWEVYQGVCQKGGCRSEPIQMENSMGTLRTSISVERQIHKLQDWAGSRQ
T34 sequence (P31645 whole entry): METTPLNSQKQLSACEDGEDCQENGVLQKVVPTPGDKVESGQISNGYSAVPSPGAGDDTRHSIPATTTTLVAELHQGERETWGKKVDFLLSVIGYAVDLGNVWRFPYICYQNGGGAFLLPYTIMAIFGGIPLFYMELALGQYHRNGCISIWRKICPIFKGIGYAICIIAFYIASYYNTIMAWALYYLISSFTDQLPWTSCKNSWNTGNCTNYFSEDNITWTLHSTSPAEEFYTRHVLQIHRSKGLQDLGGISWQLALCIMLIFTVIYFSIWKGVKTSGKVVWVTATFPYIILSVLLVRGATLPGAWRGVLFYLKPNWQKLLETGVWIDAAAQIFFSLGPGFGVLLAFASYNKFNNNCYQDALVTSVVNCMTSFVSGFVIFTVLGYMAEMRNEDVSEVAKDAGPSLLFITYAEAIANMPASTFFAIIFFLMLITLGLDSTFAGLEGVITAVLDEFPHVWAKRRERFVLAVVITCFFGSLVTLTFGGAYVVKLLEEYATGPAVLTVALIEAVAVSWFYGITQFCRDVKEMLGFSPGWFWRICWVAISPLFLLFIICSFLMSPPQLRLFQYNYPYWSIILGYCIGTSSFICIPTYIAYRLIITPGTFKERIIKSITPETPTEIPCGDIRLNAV
T7 sequence (P32238 whole entry): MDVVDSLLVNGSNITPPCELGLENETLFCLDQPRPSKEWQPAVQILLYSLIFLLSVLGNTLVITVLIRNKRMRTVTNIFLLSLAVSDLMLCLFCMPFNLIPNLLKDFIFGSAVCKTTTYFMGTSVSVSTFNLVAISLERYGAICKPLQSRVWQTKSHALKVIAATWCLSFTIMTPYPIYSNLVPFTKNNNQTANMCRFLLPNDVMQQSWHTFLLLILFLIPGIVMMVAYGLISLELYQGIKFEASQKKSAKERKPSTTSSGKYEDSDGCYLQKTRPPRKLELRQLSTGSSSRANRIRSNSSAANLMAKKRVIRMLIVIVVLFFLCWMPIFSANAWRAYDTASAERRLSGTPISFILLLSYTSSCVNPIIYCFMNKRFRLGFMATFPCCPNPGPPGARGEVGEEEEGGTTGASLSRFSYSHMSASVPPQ
T5 sequence (P46663 whole entry): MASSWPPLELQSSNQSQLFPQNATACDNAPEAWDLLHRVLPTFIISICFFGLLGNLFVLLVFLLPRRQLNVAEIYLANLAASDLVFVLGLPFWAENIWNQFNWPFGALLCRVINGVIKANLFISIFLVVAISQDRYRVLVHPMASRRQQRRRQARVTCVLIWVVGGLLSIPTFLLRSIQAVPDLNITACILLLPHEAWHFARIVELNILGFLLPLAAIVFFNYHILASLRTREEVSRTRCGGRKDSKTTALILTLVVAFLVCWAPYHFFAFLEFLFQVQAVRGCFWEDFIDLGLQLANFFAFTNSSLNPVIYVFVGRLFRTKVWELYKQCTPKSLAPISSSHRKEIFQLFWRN
T14 sequence (P25101 whole entry): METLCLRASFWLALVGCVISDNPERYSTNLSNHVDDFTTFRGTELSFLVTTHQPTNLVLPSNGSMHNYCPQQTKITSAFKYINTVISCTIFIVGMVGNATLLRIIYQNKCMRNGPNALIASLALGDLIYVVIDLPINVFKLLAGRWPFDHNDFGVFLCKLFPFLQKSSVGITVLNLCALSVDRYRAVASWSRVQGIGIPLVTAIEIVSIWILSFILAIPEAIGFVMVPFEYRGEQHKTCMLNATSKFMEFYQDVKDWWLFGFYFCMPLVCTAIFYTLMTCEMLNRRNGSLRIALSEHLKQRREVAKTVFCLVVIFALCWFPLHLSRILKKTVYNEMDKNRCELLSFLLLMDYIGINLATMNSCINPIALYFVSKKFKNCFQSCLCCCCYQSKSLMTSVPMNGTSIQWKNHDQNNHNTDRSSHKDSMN
T39 sequence (P08913 whole entry): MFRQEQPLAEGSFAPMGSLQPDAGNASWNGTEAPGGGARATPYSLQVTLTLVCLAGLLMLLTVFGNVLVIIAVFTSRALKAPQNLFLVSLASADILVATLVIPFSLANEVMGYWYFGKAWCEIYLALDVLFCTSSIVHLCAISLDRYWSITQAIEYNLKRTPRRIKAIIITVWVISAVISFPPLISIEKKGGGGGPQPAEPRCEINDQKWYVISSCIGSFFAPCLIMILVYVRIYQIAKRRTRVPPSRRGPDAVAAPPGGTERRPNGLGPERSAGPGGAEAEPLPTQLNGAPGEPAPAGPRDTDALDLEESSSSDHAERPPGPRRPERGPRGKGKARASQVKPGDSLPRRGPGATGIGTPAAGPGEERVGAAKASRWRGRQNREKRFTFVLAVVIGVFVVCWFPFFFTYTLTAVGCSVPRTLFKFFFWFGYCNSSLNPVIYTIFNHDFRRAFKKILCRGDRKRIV
T27 sequence (P23975 whole entry): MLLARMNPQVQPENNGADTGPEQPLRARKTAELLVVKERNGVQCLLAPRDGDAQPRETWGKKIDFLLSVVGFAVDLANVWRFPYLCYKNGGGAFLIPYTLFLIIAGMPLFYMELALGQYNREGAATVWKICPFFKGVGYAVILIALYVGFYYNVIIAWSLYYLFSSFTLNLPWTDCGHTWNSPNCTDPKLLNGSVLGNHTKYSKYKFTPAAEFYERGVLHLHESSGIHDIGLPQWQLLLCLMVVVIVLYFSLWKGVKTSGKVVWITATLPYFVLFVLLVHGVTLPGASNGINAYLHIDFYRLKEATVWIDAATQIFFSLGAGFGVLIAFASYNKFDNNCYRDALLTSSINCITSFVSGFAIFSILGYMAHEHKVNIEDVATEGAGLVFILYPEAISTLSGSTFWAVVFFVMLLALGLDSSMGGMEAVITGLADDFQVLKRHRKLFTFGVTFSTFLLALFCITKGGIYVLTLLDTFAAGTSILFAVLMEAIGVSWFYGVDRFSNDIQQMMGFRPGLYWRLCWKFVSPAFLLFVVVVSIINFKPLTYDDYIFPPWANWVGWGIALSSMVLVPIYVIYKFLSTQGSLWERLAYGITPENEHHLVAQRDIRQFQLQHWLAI

`COc1c(C)cnc(Cn2cnc3c(Cl)nc(N)nc32)c1C` [BIIB021, 6-Chloro-9-[(4-methoxy-3,5-dimethylpyridin-2-yl)methyl]-9H-purin-2-amine] was tested, and the inhibition at 10 µM (Adenosine A1 (Human)) was 8.4%, the inhibition at 10 µM (Adenosine A2a (Human)) was 14% and the inhibition at 10 µM (Androgen) was 0.7%. For the same compound, the inhibition at 10 µM (Angiotensin AT1 (Human)) was 0%, the inhibition at 10 µM (Bradykinin B1 (Human)) was 0% and the inhibition at 10 µM (Bradykinin B2 (Human)) was 0%. For the same compound, the inhibition at 10 µM (CCK A (Human)) was 2.8%, the inhibition at 10 µM (Cannabinoid CB1 (Human)) was 5.1% and the inhibition at 10 µM (Cannabinoid CB2 (Human)) was 0%. For the same compound, the inhibition at 10 µM (Dopamine D1 (Human)) was 16%, the inhibition at 10 µM [1] was 0.9% and the inhibition at 10 µM (Dopamine D3 (Human)) was 0.4%. It also gave an inhibition at 10 µM [2] of 1.1%, an inhibition at 10 µM (Endothelin ETA (Human)) of 4.8% and an inhibition at 10 µM (Endothelin ETB (Human)) of 4.7%. For the same compound, the inhibition at 10 µM (GABA B) was 0%, the inhibition at 10 µM (Glucocorticoid (Human)) was 0% and the inhibition at 10 µM (Histamine H1 (Human)) was 8.1%. It also gave an inhibition at 10 µM (Histamine H2 (Human)) of 0.7%, an inhibition at 10 µM (Histamine H3 (Human)) of 4.5% and an inhibition at 10 µM (Melatonin MT1 (Human)) of 26%. It also gave an inhibition at 10 µM (Muscarinic M1 (Human)) of 1.5%, an inhibition at 10 µM (Muscarinic M2 (Human)) of 4.6% and an inhibition at 10 µM (Muscarinic M3 (Human)) of 1.9%. For the same compound, the inhibition at 10 µM (Neurokinin NK1 (Human)) was 6.2%, the inhibition at 10 µM (Neuropeptide Y2 (Human)) was 1.3% and the inhibition at 10 µM [3] was 0%. For the same compound, the inhibition at 10 µM (Opiate δ (Human)) was 4.2%, the inhibition at 10 µM (Opiate κ (Human)) was 14% and the inhibition at 10 µM (Opiate μ (Human)) was 0%. The inhibition at 10 µM (Serotonin 5HT1A (Human)) was 7.6%, the inhibition at 10 µM (Serotonin 5HT2A (Human)) was 4.9% and the inhibition at 10 µM (Serotonin 5HT3 (Human)) was 18%. The inhibition at 10 µM [4] was 0%, the inhibition at 10 µM (Sigma σ2) was 2.4% and the inhibition at 10 µM (Vasopressin V1) was 3%. For the same compound, the inhibition at 10 µM (α1A-Adrenergic) was 1.8%, the inhibition at 10 µM (α1B-Adrenergic) was 0% and the inhibition at 10 µM (α2A-Adrenergic (Human)) was 13%. It also gave an inhibition at 10 µM (α2B-Adrenergic (Human)) of 0%, an inhibition at 10 µM (β1-Adrenergic (Human)) of 0% and an inhibition at 10 µM (β2-Adrenergic (Human)) of 0.9%.
